Laboratory results from ChEMBL document CHEMBL1201862, “PubChem BioAssay data set” (2004).
Where “and” joins values, the source holds several entries; their conditions need not be identical. Equal entries are not always repeated.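 Exposure lasted 48 hours, with cells grown in 96-well plates and compounds tested at five concentrations. GI50: concentration for 50% inhibition of growth.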 Calls of active or inactive are those of the source. Cut-off read from the data, not from the text of the source: active = GI50 up to about 1.1 µM and inactive = higher.

Legend:
Assay in all cases: NCI anticancer screen, dose series, 48 h
LOX IMVI = tested on: LOX IMVI
786-0 = tested on: 786-0
SK-MEL-5 = tested on: SK-MEL-5
K562 = tested on: K562
HCT-15 = tested on: HCT-15
KM-20L2 = tested on: KM-20L2
SF-295 = tested on: SF-295
CAKI-1 = tested on: CAKI-1
UACC-62 = tested on: UACC-62
OVCAR-8 = tested on: OVCAR-8
SF-268 = tested on: SF-268
NCI-H23 = tested on: NCI-H23
CCRF-CEM = tested on: CCRF-CEM
KM12 = tested on: KM12
SN12C = tested on: SN12C
T47D = tested on: T47D
NCI/ADR-RES = tested on: NCI/ADR-RES
BT-549 = tested on: BT-549
Hs-578T = tested on: Hs-578T
MDA-MB-435 = tested on: MDA-MB-435

Measured: GI50

CC(C)(Oc1ccc(C(=O)c2ccc(Cl)cc2)cc1Cl)C(=O)Nc1c(Cl)cccc1Cl
inactive: LOX IMVI > 100 µM | 786-0 > 100 µM | SK-MEL-5 20 µM | K562 5.64 µM | KM-20L2 > 100 µM | SF-295 > 100 µM | CAKI-1 > 100 µM | UACC-62 > 100 µM | OVCAR-8 > 100 µM | SF-268 > 100 µM | NCI-H23 > 100 µM | CCRF-CEM > 100 µM | KM12 > 100 µM
> 100 µM: HCT-15

Cc1ccc(C)c2c1C1CCCCC3(OCCCO3)C21O (centres undefined)
inactive: LOX IMVI > 100 µM | SN12C > 100 µM | 786-0 > 100 µM | SK-MEL-5 > 100 µM | K562 > 100 µM | KM-20L2 > 100 µM | SF-295 > 100 µM | CAKI-1 > 100 µM | UACC-62 > 100 µM | OVCAR-8 > 100 µM | SF-268 > 100 µM | NCI-H23 > 100 µM | CCRF-CEM > 100 µM | KM12 > 100 µM
> 100 µM: HCT-15

CCCCCC(=O)OC[n+]1ccc2c(C)c3[nH]c4ccccc4c3c(C)c2c1
0.389 µM: HCT-15
active: LOX IMVI 0.514 µM | SN12C 0.489 µM | 786-0 0.405 µM | KM-20L2 0.612 µM | SF-295 0.946 µM | OVCAR-8 0.474 µM | SF-268 0.796 µM | NCI-H23 0.857 µM
inactive: SK-MEL-5 1.51 µM | CAKI-1 1.82 µM | UACC-62 1.56 µM

CN(C)CCN(C)CCC(=O)/C=C/c1ccccc1
inactive: LOX IMVI 12.6 µM | SN12C 19 µM | 786-0 15.6 µM | SK-MEL-5 > 44.5 µM | K562 12.7 µM | KM-20L2 56.2 µM | SF-295 > 40.4 µM | CAKI-1 22.7 µM | UACC-62 25.4 µM | OVCAR-8 21.2 µM | SF-268 30.5 µM | NCI-H23 27.1 µM | CCRF-CEM 3.48 µM | KM12 20.5 µM
21.8 µM: HCT-15

Cc1cc(N(CCC#N)CCC#N)ccc1CC1N=C(c2ccccc2)OC1=O (centres undefined)
inactive: LOX IMVI > 100 µM | SN12C > 100 µM | 786-0 > 100 µM | SK-MEL-5 > 100 µM | K562 > 100 µM | KM-20L2 > 100 µM | SF-295 > 100 µM | CAKI-1 > 100 µM | UACC-62 > 100 µM | OVCAR-8 > 100 µM | SF-268 > 100 µM | NCI-H23 > 100 µM | CCRF-CEM > 100 µM | KM12 > 100 µM
> 100 µM: HCT-15

Cc1c(C(=O)CC(=O)C(=O)Nc2cccc(C(F)(F)F)c2)[n+]([O-])c2ccccc2[n+]1[O-]
3.31 µM: HCT-15
inactive: LOX IMVI 2.86 µM | SN12C 3.37 µM | 786-0 5.79 µM | SK-MEL-5 3.57 µM | K562 3.8 µM | KM-20L2 3.8 µM | SF-295 10.6 µM | CAKI-1 6.47 µM | UACC-62 2.76 µM | OVCAR-8 2.45 µM | SF-268 3.67 µM | NCI-H23 7.36 µM | CCRF-CEM 2.51 µM | KM12 4.1 µM

CC(=O)OC(C)(C)[C@@H]1CC[C@]2(C)/C=C/[C@H](C)C[C@@H](O)C3=C(C)C[C@@H](O3)C12 (some centres undefined)
> 100 µM: HCT-15
inactive: LOX IMVI > 100 µM | SN12C > 100 µM | 786-0 > 100 µM | SK-MEL-5 > 100 µM | K562 > 100 µM | KM-20L2 > 100 µM | SF-295 > 100 µM | CAKI-1 > 100 µM | UACC-62 > 100 µM | OVCAR-8 > 100 µM | SF-268 > 100 µM | NCI-H23 > 100 µM | CCRF-CEM > 100 µM | KM12 > 100 µM

CN(CCS(=O)(=O)N1C(=O)C2CCCN2C(=O)[C@@H]1Cc1ccccc1)C(=O)OCc1ccccc1 (some centres undefined)
inactive: LOX IMVI 58.3 µM | SN12C 91.6 µM | 786-0 > 100 µM | SK-MEL-5 25.8 µM | K562 33.4 µM | KM-20L2 61.8 µM | SF-295 62.2 µM | CAKI-1 44.4 µM | UACC-62 38.8 µM | OVCAR-8 70.3 µM | SF-268 61.1 µM | NCI-H23 53.2 µM | CCRF-CEM 33 µM | KM12 48.2 µM
58.6 µM: HCT-15

C=CCC(N(C)C(=O)[C@H](Cc1ccccc1)NC(=O)OCc1ccccc1)P(=O)(Oc1ccccc1)Oc1ccccc1 (some centres undefined)
inactive: LOX IMVI > 100 µM | SN12C > 100 µM | 786-0 > 100 µM | K562 9.2 µM | KM-20L2 > 100 µM | SF-295 > 100 µM | UACC-62 > 100 µM | OVCAR-8 > 100 µM | SF-268 > 100 µM | NCI-H23 > 100 µM | CCRF-CEM 8.51 µM | KM12 > 100 µM

CC1C(=O)O[C@H]2C1CC[C@@]1(C)[C@H](O)CC[C@@]13C[C@]2(O)OO3 (some centres undefined)
inactive: LOX IMVI > 100 µM | SN12C > 100 µM | 786-0 > 100 µM | SK-MEL-5 > 100 µM | K562 > 100 µM | KM-20L2 > 100 µM | SF-295 > 100 µM | CAKI-1 > 100 µM | UACC-62 > 100 µM | OVCAR-8 > 100 µM | SF-268 > 100 µM | NCI-H23 > 100 µM | CCRF-CEM > 100 µM
> 100 µM: HCT-15

O=C1C/C(=C\O)C(=O)c2ccccc2N1
> 100 µM: HCT-15
inactive: LOX IMVI > 100 µM | SN12C > 100 µM | 786-0 > 100 µM | T47D 61.8 µM | SK-MEL-5 > 100 µM | K562 > 100 µM | NCI/ADR-RES > 100 µM | BT-549 > 100 µM | SF-295 > 100 µM | CAKI-1 > 100 µM | Hs-578T > 100 µM | UACC-62 > 100 µM | OVCAR-8 > 100 µM | SF-268 > 100 µM | NCI-H23 > 100 µM | MDA-MB-435 > 100 µM | CCRF-CEM > 100 µM | KM12 > 100 µM

CCOC(=O)C(C(=S)Nc1ccccc1)c1nn2c(=O)cc(C)nc2s1 (centres undefined)
27.7 µM: HCT-15
inactive: LOX IMVI 14.4 µM | SN12C 36.7 µM | 786-0 39.8 µM | T47D 25.5 µM | SK-MEL-5 23.1 µM | K562 20.9 µM | NCI/ADR-RES 26.7 µM | BT-549 25.2 µM | SF-295 32.4 µM | CAKI-1 20.1 µM | Hs-578T 41 µM | UACC-62 23.7 µM | OVCAR-8 23.6 µM | SF-268 28.8 µM | NCI-H23 35.6 µM | MDA-MB-435 20.9 µM | CCRF-CEM 33.8 µM | KM12 25.4 µM

O=C(O)C1=C(C(=O)O)Oc2ccccc2O1
> 100 µM: HCT-15
inactive: LOX IMVI > 100 µM | SN12C > 100 µM | 786-0 > 100 µM | K562 > 100 µM | KM-20L2 > 100 µM | SF-295 > 100 µM | CAKI-1 > 100 µM | UACC-62 > 100 µM | OVCAR-8 > 100 µM | SF-268 > 100 µM | NCI-H23 > 100 µM | CCRF-CEM > 100 µM | KM12 > 100 µM

C/C(=N\NC(=O)CC(=O)Nc1ccc(C)cc1)c1cc2ccccc2oc1=O
inactive: LOX IMVI > 100 µM | SN12C > 100 µM | 786-0 > 100 µM | SK-MEL-5 > 100 µM | K562 > 100 µM | KM-20L2 > 100 µM | SF-295 > 100 µM | UACC-62 > 100 µM | OVCAR-8 > 100 µM | NCI-H23 > 100 µM | CCRF-CEM > 100 µM | KM12 > 100 µM
> 100 µM: HCT-15

CCC(C)C1=C(O)[N+]2([O-])Oc3ccc(-c4c(O)c(O)c(-c5ccc(OC(C)=O)cc5)c(OC(C)=O)c4OC(C)=O)cc3OC2(C(C)CC)C(=O)N1O (centres undefined)
inactive: LOX IMVI 38.3 µM and 37.2 µM | SN12C 42.9 µM | 786-0 > 50 µM | T47D 42.7 µM | SK-MEL-5 > 50 µM and 29.2 µM | K562 28.8 µM and 15.4 µM | NCI/ADR-RES > 50 µM | BT-549 45.6 µM | SF-295 > 50 µM | CAKI-1 > 50 µM | Hs-578T > 50 µM | UACC-62 > 50 µM and 31.3 µM | OVCAR-8 > 50 µM | SF-268 41.2 µM | NCI-H23 > 50 µM | MDA-MB-435 26.1 µM and 22.9 µM | CCRF-CEM 19.3 µM and 19.2 µM | KM12 > 50 µM
> 50 µM: HCT-15

CCOC(=O)/C=C(/C(=O)OCC)n1ccc(=O)n(Cc2cnnn2COCCOC(C)=O)c1=O
inactive: LOX IMVI 17.1 µM | SN12C 22.1 µM | 786-0 10 µM | T47D 9.57 µM | SK-MEL-5 19.1 µM | K562 4.05 µM | NCI/ADR-RES 21.9 µM | BT-549 19.5 µM | SF-295 > 100 µM | CAKI-1 5.93 µM | Hs-578T 21 µM | UACC-62 17.3 µM | OVCAR-8 16.6 µM | SF-268 20 µM | NCI-H23 17.1 µM | MDA-MB-435 16.6 µM | KM12 28.6 µM
8.77 µM: HCT-15
active: CCRF-CEM 0.713 µM

C/N=c1\sc2nc(C#N)c(C#N)nc2n1C
inactive: LOX IMVI 17.8 µM | SN12C 37.9 µM | 786-0 25.8 µM | T47D 34 µM | SK-MEL-5 19.1 µM | K562 25.6 µM | NCI/ADR-RES 25.5 µM | BT-549 28.8 µM | SF-295 18 µM | CAKI-1 23.8 µM | Hs-578T 31.1 µM | UACC-62 18.3 µM | OVCAR-8 > 10 µM | SF-268 32.4 µM | NCI-H23 18.3 µM | MDA-MB-435 21 µM | CCRF-CEM 19.7 µM | KM12 27.5 µM
19.2 µM: HCT-15
